Experimental data taken from US20100248229A1, “INVITRO HUMAN EMBRYONIC MODEL AND A METHOD THEREOF” (Stempeutics Research Private Limited, priority 2007, published 2010).
Entries after “also recorded” stand apart in the source; their conditions may differ.

Columns and labels:
[1] = tested on: EBs; experiment: In vitro 3-D embryo implantation model: attachment and outgrowth of EBs; assay type: cell-based, human; details: for degeneration, attachment and outgrowth of EBs in implantation model: high dose, 48 hrs; for ability of attached EBs to give rise to all lineages: lineage induction studies, in presence of the compound
Excerpt: An in vitro 3-dimensional (3-D) model/system for embryo implantation employing EBs in place of embryos was developed. The EBs collected on different days were subjected to implantation/attachment on the artificial substratum/surface.
To make this artificial surface regular tissue culture dishes or organ culture dishes were coated with about 1 to 2 mm thick coating of 0.5 to 1% low melting or high melting agarose in DPBS. A few wells of about 1 to 2 mm diameter are created using sterile paper disks, preferable in the center of the dish, which were removed after the agarose solidifies. Alternatively a horizontal tube like structure can be created by casting the gel over a fine glass capillary, which can be withdrawn as the agarose solidifies. This cavity/depression or tube like structure of agarose is then coated with matrix proteins like matrigel, collagen, fibronectin, laminin, gelatin etc. The coated agarose dishes were also layered with mouse or human endometrial stromal cells obtained from primary cultures or cell lines. The EBs were placed carefully in the cavity created or flushed inside the tube using a bent pasture pipette. The cells were cultured in normal standard EB media.
The EBs adhere and outgrows spreading out as a monolayer of cells on the extracellular matrix. Some cells invaded the surrounding agarose by day 10. A failure to implant/outgrow within ten days on this matrix after exposure to the drug/molecule indicates an abnormality. However, some drugs/could also support/enhance the process of attachment and outgrowth of the EBs. These molecules were screened for several other possible applications, though these may not necessarily be safe for embryonic development.
Four day old EBs were cultured on agarose and fibronectin coated surfaces. […] However, as Y27632 supports and enhances outgrowth, the effect of this drug on the expression profiles of the lineage markers and other genes needs to be screened for evaluating effect on normal development.
The model consists of a culture plate which is coated with Low melting (0.5%) agarose, A well of various depths is created in the agarose by various means eg: putting sterile filter paper disks while casting the gel and removing them latter. The gel is then coated with extracellular matrix components like fibronectin, collagen, laminin, etc. Human endometrial stromal fibroblast cell line CRL4003 is grown on this extracellular matrix as a monolayer. The spherical embryoid bodies or embryo like entities at day 4.5 are injected or pipetted into these cavities. The attachment is allowed in a culture media regularly used for hESC culture, without FGF2 supplementation (FIG. 1).
3. Lineage induction studies: The embryoid bodies after attachment to the implantation site differentiates to all lineages.
Method: Spherical Cytic EBs were collected on day 4.5 and exposed to the continuous presence of Y27632 (various doses were used). […] The control cytic EB had however just attached with smaller area of outgrowth showing that this dose of Y27632 can help in initial implantation of embryo during pregnancy.

[2] = tested on: HUES 9 EB; experiment: Expression profiles of lineage, pluripotency, epigenetic and imprinted genes in day 4.5 spherical EBs (HUES 9); assay type: cell-based, human; parameters: key: The sign ‘+’ indicates expression of the gene; the sign “−” indicates non-expression of the gene
Description: RT-PCR: Total RNA from cells was isolated using TRIZOL-LS Reagent (Invitrogen) as per the manufacturer's protocol. Complementary DNA was synthesized using the SuperScript III First-Strand Synthesis System (Invitrogen) as per the manufacturer's instructions. Polymerase Chain Reaction (PCR) was carried out using 1U Tag DNA Polymerase (Sigma) and MgCl2 to a final concentration of 1.5 mM in a total volume of 25 μl/reaction. β-actin and GAPDH were used as the housekeeping controls. PCR cycles consisted of an initial denaturation at 95° C. for 5 minutes followed by 35 amplification cycles of denaturation at 94° C. for 45 seconds, annealing for 45 seconds, and extension at 72° C. for 45 seconds and final extension at 72° C. for 10 minutes.
Examples of changes in the expression profiles/patterns of lineage markers, pluripotency markers, epigenetic markers and imprinted genes, in day 4.5 spherical cavitating/cytic embryoid bodies upon exposure to compounds like lipopolysaccharide (LPS), Rho kinase inhibitor (Y27632), Azacytidine (Aza), and biologicals like an Uvomorulin antibody (UVO) are given in the table nos. 9-12 below. The sign ‘+’ indicates expression of the gene and the sign “−” indicates non-expression of the gene.

[3] = HUES 9 EB DAY 4.5 RI (Y27632), control +
[4] = HUES 9 EB DAY 4.5 RI (Y27632), control −

Nc1ncn([C@@H]2O[C@H](CO)[C@@H](O)[C@H]2O)c(=O)n1 [5-Azacytidine]
degeneration, attachment and outgrowth of EBs in implantation model [1]: degeneration of the EBs, and they failed to attach and outgrow
BRACHURY gene expression ([2]; HUES 9 EB D 4.5 AZA, control +): −
CDH1 gene expression ([2]; HUES 9 EB D 4.5 AZA, control +): −
CDH13 gene expression ([2]; HUES 9 EB D 4.5 AZA, control +): −
CDX2 gene expression ([2]; HUES 9 EB D 4.5 AZA, control +): −
DLK1 gene expression ([2]; HUES 9 EB D 4.5 AZA, control +): −
HOXD12 gene expression ([2]; HUES 9 EB D 4.5 AZA, control +): −
NANOG gene expression ([2]; HUES 9 EB D 4.5 AZA, control +): −
SDHD gene expression ([2]; HUES 9 EB D 4.5 AZA, control +): −
TIMP3 gene expression ([2]; HUES 9 EB D 4.5 AZA, control +): −
TNFR gene expression ([2]; HUES 9 EB D 4.5 AZA, control +): −
hTERT gene expression ([2]; HUES 9 EB D 4.5 AZA, control +): −
p53 gene expression ([2]; HUES 9 EB D 4.5 AZA, control +): −
BMP-2 gene expression ([2]; HUES 9 EB D 4.5 AZA, control −): −
CD44 gene expression ([2]; HUES 9 EB D 4.5 AZA, control −): −
DPYS gene expression ([2]; HUES 9 EB D 4.5 AZA, control −): +
H19 gene expression ([2]; HUES 9 EB D 4.5 AZA, control −): −
OCT-4 gene expression ([2]; HUES 9 EB D 4.5 AZA, control −): +
PTEN gene expression ([2]; HUES 9 EB D 4.5 AZA, control −): −
β-III TUBULIN gene expression ([2]; HUES 9 EB D 4.5 AZA, control −): −

C[S+](C)[O-] [DMSO]
degeneration, attachment and outgrowth of EBs in implantation model [1]: degeneration of the EBs, and they failed to attach and outgrow
ability of attached EBs to give rise to all lineages [1]: compromised

OO [H2O2]
ability of attached EBs to give rise to all lineages [1]: compromised

C[C@@H](N)[C@H]1CC[C@H](C(=O)Nc2ccncc2)CC1 [Y27632]
attachment and outgrowth of spheroid cavitating/cystic EB in implantation model ([1]; day 4.5 EBs, 20 μM, 48 hrs exposure): supportive/enhanced attachment; also recorded: attached and outgrown to a larger area
attachment of EBs ([1]; four day old EBs on agarose and fibronectin coated surfaces, 20 μM, control attached from 4th day): enhanced attachment from day 2 onwards
BRACHURY gene expression [2, 3]: −
CDH1 gene expression [2, 3]: +
CDX-2 gene expression [2, 3]: −
DLK-1 gene expression [2, 3]: −
HOXD11 gene expression [2, 3]: +
HOXD12 gene expression [2, 3]: −
SDHD gene expression [2, 3]: −
TIMP3 gene expression [2, 3]: −
hTERT gene expression [2, 3]: −
p53 gene expression [2, 3]: −
BMP-2 gene expression [2, 4]: −
CD44 gene expression [2, 4]: +
NOTCH gene expression [2, 4]: +
OCT-4 gene expression [2, 4]: +
PGR gene expression [2, 4]: +
PTEN gene expression [2, 4]: +
TGF β gene expression [2, 4]: +
TP73 gene expression [2, 4]: +
β-III TUBULIN gene expression [2, 4]: +
